Measurements as given in patent US20090042820A1, “Tubulin Binding Anti Cancer Agents And Prodrugs Thereof” (Threshold Pharmaceuticals, Inc., priority 2004, published 2009).
Like-named read-outs stand apart in the source and are kept apart here.

Legend:
H460 cells [1] = assay: Cell cycle analysis; assay type: cell-based, human; details: 24 h
Procedure: H460 cells (2×10^5 cells/ml/well) were seeded in a 24 well plate. The culture media were removed after 24 h, the cells were trypsinized and centrifuged. […] The cells were centrifuged and the supernatant was discarded. The cell cycle staining reagent (Guava Technologies, Hayward, Calif., USA, 200 μl) was added to each well. The cells were shielded from light and incubated at room temperature for 30 min.

MES-SA/DX5 = assay: Alamar Blue antiproliferation assay, MES-SA/DX5; assay type: cell-based; details: Homo sapiens, 72 h; MES-SA/DX5, 3 Day
tubulin = assay: Tubulin polymerization inhibition (cell free tubulin fluorescence); assay type: biochemical; details: compared to untreated tubulin, read-out: IC50 (μM), concentration that reduced tubulin fluorescence by 50%
Procedure: A sample of cell free tubulin polymerizes and the sample's fluorescence emission increases. Inhibition of tubulin polymerization by a tubulin binding compounds of the present invention was measured by the dose dependence of cell free tubulin fluorescence.

HT29 = assay: Alamar Blue antiproliferation assay, HT29; assay type: cell-based; details: Homo sapiens, HT-29, 72 h; HT29, 3 Day
MES-SA = assay: Alamar Blue antiproliferation assay, MES-SA; assay type: cell-based; details: Homo sapiens, 72 h, 3 Day
H460 cells [2] = assay: Alamar Blue antiproliferation assay, H460 cell line; assay type: cell-based, human; details: Homo sapiens
Procedure: (§1) To determine the effect of the compounds of the present invention on cell proliferation, the antiproliferative activity of these compounds was tested in a multi-well Alamar Blue based assay (at 2 h and 3 days). Cell growth in the presence and absence of the test compound as tabulated in Table 1 was compared, as measured by a fluorescence plate reader at excitation 550 nm and emission 590 nm (see Biosource International Inc., Tech Application Notes, Use of Alamar Blue in the measurement of Cell Viability and Toxicity, Determining IC50). H460 cells (ATCC HTB-177 ([…]), 4,000 cells/well/200 μl) and LNCap cells (ATCC CRL-1740, 6,000 cells/well/200 μl) were seeded in a 96 well plate in RPMI medium (Invitrogen Corporation, Carlsbad, Calif.). After 24 hours, these plates were divided into 3 groups—Control group, 2 h treatment group and 3 day treatment group.
(§2) In the 2 h treatment group, after 2 h the cells were rinsed to remove the test compound and incubated for 3 days, followed by staining with AlamarBlue. The cells in the 3-day treatment group were incubated for 3 days, followed by staining with AlamarBlue. In the Control group, AlamarBlue was added to the plate at (i) day 0 and (ii) day 3 and measured to establish the control reading. In all the groups, the capacity of the cells to proliferate was measured 6 hours after addition of AlamarBlue by a fluorescence plate reader at excitation 550 nm and emission 590 nm.

[3] = H460 xenograft mouse model; assay type: in vivo; details: female, mouse, in vivo; daily dose for five days, CB17/SCID mice; read-out: maximum tolerated dose
Procedure: (§3) Female CB17/SCID mice (purchased from Taconic, Oxnard, Calif.), 7-8 weeks of age, were allowed to acclimatize for at least three days, and handled under pathogen-free conditions. Human non-small cell lung cancer cell line […] was obtained from the American Type Culture Collection. The cell lines were cultured in RPMI 1640 media supplemented with 10% fetal bovine serum. Cells were maintained in a 37° C. incubator with 5% CO2. The H460 cells were harvested from culture and inoculated at 1×10^6 cells/animal in the […] subcutaneous space. […] Taxol was administered approximately 2-3 hours before that of compound 30.
(§4) The body weight of each mouse was recorded twice per week (FIG. 1). […] One animal in the treatment group was found dead on day 18, and two were found dead on day 22 in the combination group.
(§5) FIG. 2 graphically illustrates the mean tumor volume for each treatment group. Growth of each xenograft was monitored by externally measuring tumors in two dimensions using a digital caliper twice per week. Tumor volume (V) was determined by the following equation: V=(L×W^2)/2, where L is the length and W is the width of a xenograft. Tumor volumes were measured twice weekly. On day 11, the Treated/Control (T/C) ratio was 65% and 52% in the treatment and combination groups, respectively. At the final measurement (day 22), the T/C ratio for the treatment and combination groups respectively were 43% and 19%.

H460 xenograft = H460 xenograft mouse model; assay type: in vivo; details: for Treated/Control (T/C) ratio, tumor volume: compound 30 5 mg/kg daily for five days from day 8
Procedure: as §3, §4, §5

cancer cell = assay: Cancer cell antiproliferation assay (cell line not stated); assay type: cell-based; details: summary statement; read-out: GI50 or IC50 in a cancer cell antiproliferation assay
Procedure: In one aspect, the present invention provides a compound of formula (I-VII) having a GI50, GI90, IC50, or IC50 of about 0.001 to about 1000 nM, about 0.01 to about 100 nm, about 0.1 to about 50 nM, and about 1 to about 10 nM in a cancer cell antiproliferation assay. In one embodiment, the present invention provides a compound of formula (I) having a GI50 or IC50 of about 0.01 to about 100 nm, about 0.1 to about 50 nm, and about 1 to about 10 nm in a cancer cell antiproliferation assay. In various embodiments, said antiproliferation assays employ cancer cell including but not limited to gastric, colon, breast, and non-small cell lung cancer. In various embodiments, the […] cancer cell used is MESSA or doxorubicin resistant MESSA/DX5 cell; the colon cancer cell is HT29 cell; the breast cancer cell is T47D cell; and the non-small cell lung cancer cell is H460 cell.
as §1, §2

Plasma stability = assay type: in vitro ADME; details: mouse plasma, 5 μM, 37° C.
Procedure: For an assessment of plasma stability of compounds, commercially available mouse plasma (Bioreclamation, Hicksville, N.Y.) was added to a DMSO solution of a compound, to a concentration of 5 μM. The reaction mixture (50 μl) was withdrawn immediately and after 30 minutes at 37° C., proteins were precipitated with acetonitrile. The clear supernatant was analyzed by reversed phase LC-MS/MS and the amount the compound remaining quantified as shown in table 4.

[4] = Metabolic stability in mouse liver microsomes; assay type: in vitro ADME; details: 5 μM, 1 mg/mL protein, NADPH, 37° C.
Procedure: An in vitro assessment of metabolic stability of compounds was performed using commercially available mouse liver microsomes (MLM) containing cytochrome P450 enzymes (Cedra Corp, Austin, Tex.). A solutions (5 μM) of a compound and microsomes (1 mg/mL protein) was prepared. P450 enzymatic reactions were initiated by adding an NADPH solution. Enzymatic reactions were carried out in a thermostated shaking water bath kept at 37° C. Fifty μl of the reaction mixture was withdrawn immediately and 30 minutes after the addition of the NADPH solution and the proteins were precipitated with acetonitrile. The clear supernatant was analyzed by reversed phase LC-MS/MS (Applied Biosystems API-3000 with Hypersil-BDS C18 column and gradient elution), with internal standard area ratio quantification for the amount the compound remaining as shown in table 4.

T47D = assay: Alamar Blue antiproliferation assay, T47D; assay type: cell-based; details: Homo sapiens, 72 h, 3 Day

COc1cc(C(=O)c2n[nH]c3c(C#CCO)c(OC)ccc23)cc(OC)c1OC [Compound 30]
% G2/M (H460 cells [1]; H460, 0.4 nM): 31%
% Go/G1 (H460 cells [1]; H460, 0.4 nM): 46%
% S (H460 cells [1]; H460, 0.4 nM): 14%
% G2/M (H460 cells [1]; H460, 1.2 nM): 29%
% Go/G1 (H460 cells [1]; H460, 1.2 nM): 48%
% S (H460 cells [1]; H460, 1.2 nM): 15%
% G2/M (H460 cells [1]; H460, 3.7 nM): 31%
% Go/G1 (H460 cells [1]; H460, 3.7 nM): 46%
% S (H460 cells [1]; H460, 3.7 nM): 14%
% G2/M (H460 cells [1]; H460, 11.1 nM): 68%
% Go/G1 (H460 cells [1]; H460, 11.1 nM): 14%
% S (H460 cells [1]; H460, 11.1 nM): 9%
% G2/M (H460 cells [1]; H460, 33.3 nM): 80%
% Go/G1 (H460 cells [1]; H460, 33.3 nM): 7%
% S (H460 cells [1]; H460, 33.3 nM): 7%
GI50 (MES-SA/DX5): 1.6 nM
IC50 (tubulin): 3.9 µM
GI50 (HT29): 1.9 nM
GI50 (MES-SA): 0.3 nM
GI50 (H460 cells [2]; NCI-H460, 2 h treatment, then 3 days incubation, read-out: GI50 (nM) 2 Hour): 630 nM
GI50 (H460 cells [2]; NCI-H460, 72 h, 3 day treatment, read-out: GI50 (nM) 3 Days): 10 nM
MTD at 5 days [3]: 5 to 20 mg/kg
toxicity at doses greater than 5 mg/kg (H460 xenograft; daily doses 20 and 50 mg/kg for five days, treatment and combination groups): toxic and caused lethality
Treated/Control (T/C) ratio, tumor volume (H460 xenograft; day 11): 65%
animals found dead (H460 xenograft; day 18, compound 30 5 mg/kg daily, ten per group): One
Treated/Control (T/C) ratio, tumor volume (H460 xenograft; day 22 (final measurement)): 43%
mean weight loss (H460 xenograft; day 22 from start of treatment on day 8, compound 30 5 mg/kg daily for five days): 8%
tumor volume as % of a control tumor volume (H460 xenograft; human cancer cell xenograft tumor bearing mice, summary statement): 5-70%
IC50 (cancer cell): 1 to 50 nM
Plasma stability (% remaining at 30 min) (Plasma stability): 104%
Metabolic stability (MLM, % remaining at 30 min) [4]: 101 ± 16%
GI50 (T47D): 2.5 nM
